In ChEMBL document CHEMBL5532635, “The role of natural anti-parasitic guided development of synthetic drugs for leishmaniasis” (Eur J Med Chem, 2023) one finds IC50 and EC50 data, which are given here for 24 molecules.

pEC50, pIC50: −log10 of the molar value. ≈ marks a conversion by molar mass, not a printed value.

Holding throughout (format): functional, organism-based
Assay [1] relates to Leishmania infantum. Put plainly: Antileishmanial activity against Leishmania infantum MHOM/BR/70/BH46 promastigotes assessed as inhibition of parasite growth incubated for 72 hrs by Neubauer chamber based analysis. The following applies: MHOM/BR/70/BH46, 72 h.
Assay [2] relates to Leishmania donovani. In words: Antileishmanial activity against Leishmania donovani BHU575 promastigotes assessed as cell viability by MTT assay.
Assay [3] concerns Leishmania tropica. In words: Antileishmanial activity against Leishmania tropica promastigotes assessed as inhibition of parasite growth.
Assay [4] relates to Leishmania major. Put plainly: Antileishmanial activity against Leishmania major IR-173 promastigotes assessed as inhibition of parasite growth incubated for 48 hrs by resazurin dye based assay. The following applies: IR-173, 48 h. (The colour change of resazurin is a common sign of viable cells or microbes.)
For assay [5], the system named is Leishmania major. Put plainly: Antileishmanial activity against Leishmania major promastigotes assessed as inhibition of parasite growth incubated for 48 hrs by resazurin dye based assay.
The test system of assay [6] is Leishmania donovani. Put plainly: Antileishmanial activity against Leishmania donovani promastigotes assessed as inhibition of parasite growth incubated for 4 hrs by MTT assay.
Assay [7] concerns Leishmania major. Put plainly: Antileishmanial activity against Leishmania major IR-173 amastigotes assessed as parasite growth inhibition incubated for 72 hrs by resazurin dye based assay. The following applies: IR-173, 72 h.
The subject of assay [8] is Leishmania tropica. In words: Antileishmanial activity against Leishmania tropica promastigotes incubated for 24 hrs measured by alamar blue staining based fluorescence analysis.
The subject of assay [9] is Leishmania tropica. In words: Antileishmanial activity against Leishmania tropica amastigotes incubated for 24 hrs measured by alamar blue staining based fluorescence analysis.
For assay [10], the system named is Leishmania infantum. In words: Antileishmanial activity against Leishmania infantum assessed as reduction in parasite growth.
Assay [11] concerns Leishmania amazonensis. Put plainly: Antileishmanial activity against Leishmania amazonensis promastigotes assessed as reduction in parasite growth measured after 24 hrs by MTT assay. For orientation: Formazan colour is commonly taken as a measure of viable cells.
For assay [12], the system named is Leishmania amazonensis. Put plainly: Antileishmanial activity against Leishmania amazonensis amastigotes assessed as reduction in parasite growth measured after 24 hrs by MTT assay.
Assay [13] relates to Leishmania amazonensis. In words: Antileishmanial activity against Leishmania amazonensis promastigotes assessed as reduction in parasite viability after 72 hrs by CCK-8 assay.
In assay [14] the test system is Leishmania infantum. In words: Antileishmanial activity against Leishmania infantum promastigote assessed as reduction in parasite growth after 72 hrs by MTT assay.
The test system of assay [15] is Leishmania amazonensis. Put plainly: Antileishmanial activity against Leishmania amazonensis promastigotes.
For assay [16], the system named is Leishmania amazonensis. Put plainly: Antileishmanial activity against Leishmania amazonensis IFLA/BR/1967/PH8 amastigotes infected in mouse peritoneal macrophage assessed as inhibition of parasite growth measured after 24 hrs by Giemsa staining based analysis. The following applies: IFLA/BR/1967/PH8, Peritoneal macrophage cell.
The subject of assay [17] is Leishmania infantum. In words: Antileishmanial activity against Leishmania infantum amastigotes infected in human THP-1 cells assessed as reduction in parasite growth incubated for 72 hrs by high content imaging analysis. The following applies: THP-1, 72 h.
The subject of assay [18] is Leishmania major. In words: Antileishmanial activity against Leishmania major promastigotes assessed as reduction in parasite growth incubated for 72 hrs by MTT assay.
Assay [19] relates to Leishmania major. Put plainly: Antileishmanial activity against Leishmania major amastigotes assessed as reduction in parasite growth incubated for 72 hrs by MTT assay.
Assay [20] concerns Leishmania amazonensis. In words: Antileishmanial activity against Leishmania amazonensis amastigotes assessed as reduction in parasite growth.
For assay [21], the system named is Leishmania infantum. Put plainly: Antileishmanial activity Leishmania infantum promastigotes assessed as reduction in parasite growth incubated for 72 hrs by alamar blue assay.
For assay [22], the system named is Leishmania amazonensis. Put plainly: Antileishmanial activity against Leishmania amazonensis promastigotes assessed as reduction in parasite viability after 48 hrs by MTT assay.
The subject of assay [23] is Leishmania donovani. Put plainly: Antileishmanial activity against Leishmania donovani promastigotes assessed as reduction in parasite growth.
The test system of assay [24] is Leishmania amazonensis. In words: Antileishmanial activity against Leishmania amazonensis MHOM/BR/77/LTB001 assessed as parasite growth inhibition.

On to `Cc1cc(Br)cc2c(/C=N\NC(=S)Nc3ccccc3)c[nH]c12`, for which the pIC50 in assay [1] was 5.25.

Regarding `CC1=CCC[C@H]2[C@](C)(CC3=CC(=O)C=CC3=O)[C@@H](C)CC[C@]12C` [AVARONE], the negative-log IC50 (pIC50) was 4.55 in assay [2] and 4.69 in assay [3].

In the case of `CCC[C@H]1CC(=O)Oc2c(C(=O)[C@H](C)[C@H](C)O)c(O)c3c(c21)OC(C)(C)C=C3`, the results for the IC50 in [4] and in assay [5] were 36.5 µg/mL (≈ 94 µM) and 29.1 µg/mL (≈ 74.9 µM), respectively.

With `CCCCCCCCCCCCCCCCOP(=O)([O-])OCC[N+](C)(C)C` [MILTEFOSINE], the pIC50 in assay [6] was 5.50.

As for `Cc1ccc2c(NCCCCCNC(=O)c3cccc(/C=C/C(=O)c4ccc(C)o4)c3)ccnc2c1`, in [7], the pIC50 is 6.34.

Take `Cc1ccccc1C(=O)N/N=C1\C(=O)N(CC(O)COc2cc(=O)oc3ccccc23)c2ccccc21` (stereo unspecified): the pIC50 in assay [8] is 5.43; in assay [9] it was 5.38.

Regarding `CCCn1c(C)cc(O)c(C(=O)Nc2ccc(Br)cc2)c1=O`, the pIC50 in [10] was 4.26.

In the case of `C[C@@H]1[C@H](O)[C@@H](C)/C=C/C=C/C=C/C=C/C=C/C=C/C=C/[C@H](O[C@@H]2O[C@H](C)[C@@H](O)[C@H](N)[C@@H]2O)C[C@@H]2O[C@](O)(C[C@@H](O)C[C@@H](O)[C@H](O)CC[C@@H](O)C[C@@H](O)CC(=O)O[C@H]1C)C[C@H](O)[C@H]2C(=O)O` [AMPHOTERICIN B], in assay [6], the pIC50 was 7.34.

As for `CCc1ccc(NC(=S)N/N=C\c2c[nH]c3c(C)cc(Br)cc23)cc1`, in assay [1], the pIC50 is 5.36.

Regarding `COc1ccc(C(O)C(C)Oc2ccc(C3OC(c4ccc(OC(C)C(O)c5ccc(OC)c(OC)c5)c(OC)c4)C(C)C3C)cc2OC)cc1OC` (stereo unspecified), the IC50 is 35.4 µg/mL (≈ 48.3 µM) in assay [11] and 20.4 µg/mL (≈ 27.8 µM) in [12].

`CC1(C)C=Cc2c(ccc3c2OCC2c4cc5c(cc4OC32)OCO5)O1` (stereo unspecified) [LEIOCARPIN]: the pIC50 in assay [13] is 4.94; in assay [14] it was 4.81; in [15] it was 5.15.

As to `O=C(CC[Se]c1ccnc2cc(Cl)ccc12)Nc1ccc([N+](=O)[O-])cc1`, in [16], the pIC50 is 4.97.

With `COc1ccc2nc(C(=O)NCCCN(C)C)ccc2c1`, in assay [16], the pIC50 was 5.25.

Take `CC1=CCC[C@H]2[C@](C)(Cc3cc(O)ccc3O)[C@@H](C)CC[C@]12C` [AVAROL]: the pIC50 in [2] is 5.13; in [3], 5.15; in [17] it was 5.50.

Consider `COc1cc2c(c(OC)c1OC)-c1ccc(OC)c(=O)cc1[C@@H](NC(=O)CO)CC2` [COLCHIFOLINE], for which the IC50 in [18] is 0.7 µg/mL (≈ 1.68 µM); in assay [19] it was 14 µg/mL (≈ 33.7 µM).

As for `C=C[C@@H](c1cc(CC=C(C)C)ccc1O)c1cc(CC=C(C)C)c(OC)cc1O`, the pIC50 is 5.95 in assay [20], 5.35 in assay [13] and 5.28 in assay [14].

`Cc1cc(O)c(C(=O)Nc2ccccc2)c(=O)n1Cc1ccc(Cl)cc1`: in [10], the pIC50 was 4.26.

On to `COc1c2c(cc3c1-c1ccc(OC)c(=O)cc1[C@@H](NC(C)=O)CC3)OCO2`, for which the figures for the IC50 in assay [18] and in assay [19] were 0.4 µg/mL (≈ 1.04 µM) and 8.7 µg/mL (≈ 22.7 µM), respectively.

Take `COc1cc2ccc(=O)oc2cc1OC` [SCOPARONE]: the pEC50 in [21] was 5.28.

In the case of `COC(=O)C1=CCC[C@@H]2[C@@](C)(CCc3ccco3)[C@H](C(=O)OC)CC[C@@]12C`, the pIC50 in assay [22] is 7.57.

Consider `COC1=C(C)O[C@H]2C[C@@]1(OC)n1c3ccccc3c3c4c(c5c6ccccc6n2c5c31)C(=O)NC4`, for which the pIC50 was below 7.05 in [23] and 7.65 in assay [13].

As for `Cc1cc(O)c(C(=O)Nc2ccccc2)c(=O)n1Cc1cccc(Cl)c1Cl`, the pIC50 in [10] is 4.26.

Regarding `CO[C@@H]1C(=O)C[C@H]2O[C@]1(C)n1c3ccccc3c3c4c(c5c6ccccc6n2c5c31)C(=O)NC4`, the pIC50 was below 7.05 in [23], 8.30 in assay [20] and 7.43 in [13].

For the molecule `CN[C@@H]1C[C@H]2O[C@@](C)([C@@H]1OC)n1c3ccccc3c3c4c(c5c6ccccc6n2c5c31)C(=O)NC4=O`, the negative-log IC50 (pIC50) in [24] is 8.15; in assay [23] it was 9.00; in assay [20] it was 9.70.

The term pIC50 denotes the negative decadic logarithm of the IC50, by convention in mol/L. One may read the IC50 as the concentration at which inhibition is half-maximal. A word on the pEC50: it is −log10 of the EC50, conventionally taken in molar units.
